Measurements published in patent US5861426A, “Nitro compounds of the formula A-Xi -NO2 and their compositions having anti-inflammatory, analgesic and anti-thrombotic activities” (Nicox S.A., priority 1994, dated 1999).
Where two headings read alike, the source gives them in different places.

Assays:
COX-2 = target: T1, COX-2 (Mus musculus, UniProt Q05769); experiment: COX-2 inhibition in isolated cells; format: cell-based
T1 construct: endogenous in cells; host or cells: J774.2 macrophages, 12 h with endotoxin
T1 sequence (Q05769 18-604): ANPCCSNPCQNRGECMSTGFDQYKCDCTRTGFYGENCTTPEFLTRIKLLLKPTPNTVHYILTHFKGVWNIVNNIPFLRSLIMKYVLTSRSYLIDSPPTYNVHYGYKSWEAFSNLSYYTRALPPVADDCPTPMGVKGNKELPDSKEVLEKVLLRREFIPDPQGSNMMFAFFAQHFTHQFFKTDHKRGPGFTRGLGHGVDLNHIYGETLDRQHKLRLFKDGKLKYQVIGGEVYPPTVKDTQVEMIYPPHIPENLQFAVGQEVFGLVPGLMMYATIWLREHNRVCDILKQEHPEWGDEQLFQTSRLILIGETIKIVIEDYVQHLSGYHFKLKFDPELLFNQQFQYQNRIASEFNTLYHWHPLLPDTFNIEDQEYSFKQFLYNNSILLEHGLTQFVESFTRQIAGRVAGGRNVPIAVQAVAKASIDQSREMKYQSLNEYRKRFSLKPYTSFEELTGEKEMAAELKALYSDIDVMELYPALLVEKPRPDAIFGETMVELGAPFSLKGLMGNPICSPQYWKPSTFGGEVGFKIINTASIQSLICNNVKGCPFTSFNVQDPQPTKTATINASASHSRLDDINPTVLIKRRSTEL
Procedure: (§1) The activity inhibiting cyclo-oxygenase was determined in isolated cells. Endothelial cells of bovine aorta were used as a source of COX-1 and macrophage line J774.2 as a source of COX-2. The same conditions described by Mitchell et al. (Proc. Nat. Acad. Sci. 90, 11693, 1993) for growth and the viability test were used.
(§2) In brief, the cells were incubated for 30 minutes with scalar concentrations of the test product and the substrate (arachidonic acid) was then added and incubated for another 15 minutes. Enzyme activity was determined radioimmunologically by measuring the formation of 6-keto-PGF 1 alpha. In the case of cell lines J.774.2, the cells were incubated for 12 hours with endotoxin to promote COX-2 formation.
(§3) Study of the anti-cyclooxygenase (COX-1/COX-2) properties in isolated cells.
(§4) Response expressed as a % of the controls with relative response variability.

carrageenin-oedema = experiment: Anti-inflammatory activity, carrageenin-oedema method; format: in vivo; conditions: rats, oral 3 to 30 mg/Kg in carboxymethylcellulose; natural product = 1.0
Procedure: (§6) Study of the anti-inflammatory (I) and analgesic (II) properties (pharmacodynamics) and gastrointestinal tolerance (III) (toxicity) of the test compounds after oral administration of doses ranging from 3 to 30 mg/Kg in carboxymethylcellulose suspensions and constructing dose-responsecurves. […] Activities are expressed as the potency ratio compared to the natural product used as a unit standard.

COX-1 = target: T2, COX-1 (Bos taurus, UniProt O62664); experiment: COX-1 inhibition in isolated cells; format: cell-based, bovine; conditions: read-out: COX-1 response, % of the controls with response variability
T2 construct: Endothelial cells of bovine aorta were used as a source of COX-1; endogenous in cells; host or cells: bovine aortic endothelial cells
T2 sequence (O62664 25-600): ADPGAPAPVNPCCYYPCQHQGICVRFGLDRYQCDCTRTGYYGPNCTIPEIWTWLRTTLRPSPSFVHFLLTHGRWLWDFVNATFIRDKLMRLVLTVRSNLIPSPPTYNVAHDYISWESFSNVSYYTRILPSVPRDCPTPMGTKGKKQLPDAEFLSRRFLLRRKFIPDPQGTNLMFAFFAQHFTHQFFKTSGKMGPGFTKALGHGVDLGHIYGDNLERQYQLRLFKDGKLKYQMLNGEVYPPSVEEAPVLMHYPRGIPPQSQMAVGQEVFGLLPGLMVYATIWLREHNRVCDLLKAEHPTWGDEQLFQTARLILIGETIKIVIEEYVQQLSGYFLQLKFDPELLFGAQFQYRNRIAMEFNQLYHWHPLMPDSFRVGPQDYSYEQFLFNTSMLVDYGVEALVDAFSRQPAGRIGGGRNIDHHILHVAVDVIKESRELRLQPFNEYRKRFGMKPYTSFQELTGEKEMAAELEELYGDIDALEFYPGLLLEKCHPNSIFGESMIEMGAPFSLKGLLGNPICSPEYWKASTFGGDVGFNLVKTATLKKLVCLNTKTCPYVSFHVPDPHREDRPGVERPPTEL
Procedure: as §1, §2, §3, §4

[1] = tested on: human platelets stimulated by thrombin; experiment: Platelet anti-aggregating activity in vitro; format: cell-based; conditions: 10^-5 to 10^-7 molar range, natural product = 1.0
Description: (§5) Example of the anti-cyclooxygenase (I), platelet anti-aggregating (II) and vasodilative (III) properties of the test compounds tested in vitro at concentrations in the molar range from 10^-5 to 10^-7 of the product in water/alcohol with the addition of small amounts of DMSO (dimethylsulphoxide). The activities are expressed as the potency ratio versus the natural product used as a unit standard, as stated in Table

cyclo-oxygenase = experiment: Anti-cyclooxygenase activity; format: cell-based
Procedure: as §1, §2, §5

Swiss mice = experiment: Analgesic activity (Hendershot et al.); format: in vivo; conditions: oral 3 to 30 mg/Kg in carboxymethylcellulose, natural product = 1.0
Procedure: as §6

isolated rat aorta = experiment: Vasodilative activity, inhibition of contraction induced by epinephrine; conditions: in vitro, 10^-5 to 10^-7 molar range
Description: as §5

nitrosynthetase (NOS) = experiment: Nitrosynthetase (NOS) activity induced by LPS in rats; format: in vivo, rat; conditions: oral, LPS only = 100
Procedure: The nitrosynthetase inhibition activity induced by lipopolysaccharide (LPS) was determined in rat neutrophils and stomach after administration of one of the test compounds and compared with that obtained after treatment of the suspension vehicle only.
In brief, Wistar rats fasting for 24 hours before treatment were orally administered the test product (10 mg/Kg) and intravenously (caudal vein) administered LPS (5 mg/Kg).
Four hours later the animals were sacrificed and the blood--for neutrophils isolation--and the stomach taken.
Enzyme activity was determined in accordance with the method described by Assreuy et al. (Br. J. Pharmacol. 108, 833, 1993).
Study of the inhibitory properties of the nitrosynthetase (NOS) activity induced by liposaccharide (LPS) in rats using oral doses ranging from 5 to 20 mg/Kg suspended in a carboxymethylcellulose base.

gastropathy = experiment: Gastric tolerance, severity of induced gastropathy; conditions: rats, oral 3 to 30 mg/Kg in carboxymethylcellulose; natural product = 1.0
Procedure: Gastric tolerance was measured by oral administration to rats assessing the severity of the gastropathy induced in accordance with the criteria described by Wallace et al. (Am. J. Physiol. 259, G642, 1990).
Study of the anti-inflammatory (I) and analgesic (II) properties (pharmacodynamics) and gastrointestinal tolerance (III) (toxicity) of the test compounds after oral administration of doses ranging from 3 to 30 mg/Kg in carboxymethylcellulose suspensions and constructing dose-responsecurves.
Activities are expressed as the potency ratio compared to the natural product used as a unit standard. The nitroderivative is that of the shown examples, the natural reference compound is that shown as a reference.

gastric mucous membrane = experiment: Gastric irritation of Tween 80 / dimethylsulphoxide suspensions; format: in vivo; conditions: suspension with Tween 80 and dimethylsulphoxide (0.1% and 1% for nitroxybutylflurbiprofen; lower amounts for NO-flurbiprofen derivative)
[2] = J774.2, read-out: COX-2 response, % of the controls with response variability

SMILES	remaining activity at 100 µg/mL (COX-2; 0.1 mg/ml, macrophage line J774.2 with endotoxin, read-out: COX-2 response, % of the controls with response variability) [%]	remaining activity at 1000 µg/mL (COX-2; 1.0 mg/ml, macrophage line J774.2 with endotoxin, read-out: COX-2 response, % of the controls with response variability) [%]	anti-inflammatory properties (I), potency ratio versus natural reference product (carrageenin-oedema)	remaining activity at 100 µg/mL (COX-1; 0.1 mg/ml, endothelial cells of bovine aorta) [%]	remaining activity at 1000 µg/mL (COX-1; 1.0 mg/ml, endothelial cells of bovine aorta) [%]	platelet anti-aggregating (II), potency ratio versus natural product [1]	direct inhibition of cyclo-oxygenase COX-1 and COX-2 (cyclo-oxygenase; Table 4 data)	anti-cyclooxygenase (I), potency ratio versus natural product (cyclo-oxygenase; in vitro, 10^-5 to 10^-7 molar range, natural product = 1.0)	analgesic properties (II), potency ratio versus natural reference product (Swiss mice)	vasodilative (III), % of inhibitory action of the vasospasm induced by epinephrine (isolated rat aorta) [%]	NOS, neutrophils; inhibition relative to the group treated with LPS only (nitrosynthetase (NOS); neutrophils)	NOS, stomach; inhibition relative to the group treated with LPS only (nitrosynthetase (NOS); stomach)	gastrointestinal tolerance (III) (toxicity), potency ratio versus natural reference product (gastropathy)	remaining activity at 100 µg/mL (COX-2; [2]) [%]	remaining activity at 1000 µg/mL (COX-2; [2]) [%]	remaining activity at 100 µg/mL (COX-1) [%]	remaining activity at 1000 µg/mL (COX-1) [%]	irritant effect on gastric mucous membrane (gastric mucous membrane)
O=C(Cc1ccccc1Nc1c(Cl)cccc1Cl)OCCOCCO[N+](=O)[O-] [Example 1b, 2-{N-[2,6-(dichloro)phenyl]amino}phenylacetate of 2-[2-(nitroxy)ethoxy]ethyl]	45 ± 3	22 ± 4	1.3	49 ± 6	29 ± 4	1.8	capable of directly inhibiting cyclo-oxygenase COX-1 and COX-2	1.8	0.9	50	52	40	0.3					
CC(C(=O)OCCCCO[N+](=O)[O-])c1ccc(-c2ccccc2)c(F)c1 (stereo not drawn) [FLURBIPROFEN NITROXYBUTYLESTER]														46 ± 23	22 ± 14	48 ± 18	29 ± 13	irritant to the gastric mucous membrane
